Assay results taken from US6794126B2, “Methods for preventing or inhibiting neuronal cell death” (The Trustees of Columbia University in the City of New York, priority 1996, dated 2004).
“Also recorded” adds a separate entry of the source. Residues, ends and D or L forms follow the SMILES beside them. *: point of attachment. Cbz = O=C(OCc1ccccc1)*; CH2F = FC*

How the values were obtained:
sympathetic neurons [1] = assay: Survival of sympathetic neurons exposed to UV irradiation; format: cell-based, rat; conditions: for survival of UV-treated sympathetic neurons: NGF present, pretreated before UV, flavopiridol 1 mM (sic, FIG. 6A), olomoucine 200 μM, isoolomoucine 200 μM, aphidicolin 10 μM; for concentration of maximal protection: UV-treated, day 1
Method: Cells were exposed to UV irradiation using the Stratolinker UV crosslinker (Stratagene®). Sympathetic neurons were exposed to 3×10^4 μJ while neuronal PC12 cells were exposed to […]. Each well was exposed with 200 μl of medium containing NGF with or without the appropriate drug. After irradiation 300 μl of additional medium containing NGF with or without drug was added.
(§1) The cells were plated onto collagen-coated 24-well dishes at a density of approximately 0.5 ganglia per well and maintained in RPMI 1640 medium supplemented with 10% heat-inactivated horse serum and 60 ng/ml mouse NGF for a period of three days prior to the survival experiment. A mixture of uridine and 5-fluorodeoxyuridine (10 mM each) was also added to eliminate non-neuronal cells on day two. No pretreatment with survival agent, unless otherwise noted, was necessary for effective survival of neurons exposed to AraC. In the case of UV irradiation, the neurons died quite rapidly. Accordingly, neuronal cultures were pretreated overnight (18 hr) with survival-promoting agents prior to UV irradiation. NGF deprivation was performed by washing with NGF-free medium and addition of anti-NGF antiserum as previously described (Park et al., 1996a). V-ASOD1 oligonucleotides, in conjunction with the nitric oxide generator, S-nitrosopenicillamine (SNAP; 100 μM) were added to the cultured sympathetic neurons as previously described (Troy et al., 1997). At appropriate times, the numbers of viable, phase bright neurons were determined by strip counting as previously described (Rydel and Greene; 1988). All experimental points are expressed relative to the original number of neurons present in each well and are reported as mean+/−SEM (n=3).

sympathetic neurons [2] = assay: Survival of sympathetic neurons treated with AraC; format: cell-based; conditions: for survival of AraC-treated sympathetic neurons: NGF present, flavopiridol 1 mM, olomoucine 200 mM (printed, FIG. 8), isoolomoucine 200 μM, aphidicolin 10 μM; for maximal concentration required to protect from AraC: day 3; for toxicity of the CDK inhibitors to sympathetic neurons: beyond five days, even without AraC treatment
Method: A mixture of uridine and 5-fluorodeoxyuridine (10 mM each) was also added to eliminate non-neuronal cells on day two. No pretreatment with survival agent, unless otherwise noted, was necessary for effective survival of neurons exposed to AraC. In the case of UV irradiation, the neurons died quite rapidly. Accordingly, neuronal cultures were pretreated overnight (18 hr) with survival-promoting agents prior to UV irradiation. […] All experimental points are expressed relative to the original number of neurons present in each well and are reported as mean+/−SEM (n=3).

sympathetic neurons [3] = assay: Survival of sympathetic neurons depleted of SOD1 (V-ASOD1 plus SNAP); format: cell-based, rat
Method: as §1

sympathetic neurons [4] = assay: Survival of sympathetic neurons deprived of NGF (Example 2); format: cell-based, rat; conditions: for death of sympathetic neurons deprived of NGF: CDK inhibitors, same experiments as SOD1 depletion (FIG. 10)
Method: as §1

neuronal PC12 cells = assay: Survival of neuronal PC12 cells depleted of SOD1 (Example 2); format: cell-based, rat
Method: Naive PC12 cells were cultured and passaged as previously described (Greene and Tischler, 1976). Neuronally-differentiated PC12 cells were generated by exposing PC12 cells to NGF in serum-free RPMI 1640 medium for 8-9 days. For survival experiments, neuronally-differentiated PC12 cells were plated onto collagen-coated 24-well tissue culture dishes at a density of approximately 2×10^5 cells per well. Neuronally-differentiated PC12 cells were cultured in serum-free RPMI 1640 medium containing NGF (100 ng/ml) throughout the course of survival experiments. At appropriate times of culture under the conditions described in the text, cells were lysed and the numbers of viable cells was evaluated as previously described (Rukenstein et al., 1991). All experimental points are expressed as a percentage of cells plated on day 0 and are reported as mean +/−SEM (n=3).

proliferating PC12 cells = proliferating PC12 cells (Park et al., 1996a); cited from earlier work
PC12 cells [5] = assay: PC12 cell survival after withdrawal of serum/NGF (trophic factor deprivation); format: cell-based, rat
Method: (§2) PC12 cells were grown as previously described (Greene and Tishcler, 1976) on rat-tail collagen-coated dishes in RPMI 1640 medium containing 5% fetal calf serum and 10% heat-inactivated horse serum (complete medium). NGF primed PC12 cells were grown for at least 7 days in RPMI 1640 medium plus 1% horse serum and NGF (100 ng/ml). For cell survival assays involving trophic factor deprivation, cells (either naive or NGF-pretreated) were extensively washed in serum-free RPMI 1640 medium and re-plated on fresh collagen-coated 24-well dishes as previously described (Rukenstein et al., 1991) in RPMI 1640 medium lacking serum or NGF. For SOD1 down-regulation survival assays, cells were re-plated in complete medium with V-ASOD1 (vector linked antisense oligonucleotide to SOD1, 50 nM). Various concentrations of ICE inhibitors were included in the medium as indicated. Numbers of viable cells per culture were determined by quantifying intact nuclei as previously described (Rukenstein et al., 1991). Counts were performed in triplicate and reported as means±SEM.

sympathetic neurons [6] = assay: Survival of cultured sympathetic neurons after NGF withdrawal (Example 1); format: cell-based, rat
Method: Sympathetic neuron cultures were prepared from 2 day old rat pups, as previously described (Ferrari et al., 1995). Cultures were grown in 24-well collagen coated dishes in RPMI 1640 medium plus 10% horse serum with mouse NGF (100 ng/ml). One day following plating, uridine and 5-fluorodeoxyuridine (10 μM each) were added to the cultures and left for three days to eliminate non-neuronal cells. On the sixth day following plating NGF was removed by washing the cultures three times with RPMI 1640 medium plus 10% horse serum, followed by the addition of medium containing anti-mouse NGF (1:200, Sigma) with or without ICE inhibitors. Each culture was scored, as previously described (Rydel and Greene, 1988), as numbers of living, phase-bright neurons at various times. Three replicate cultures were assessed for each condition and data were normalized to numbers of neurons present in each culture at the time of NGF withdrawal and reported as mean±SEM.

PC12 cells [7] = assay: PC12 cell survival after SOD1 down-regulation by V-ASOD1; format: cell-based, rat
Method: as §2

IL-1β = assay: Assay of IL-1β secreted by PC12 cells (ELISA); format: cell-based, rat; conditions: 24 h
Method: IL-1β was quantified by ELISA using the Intertest-1βX kit (Genzyme, Cambridge, Mass.). PC12 cells were grown as described above, on 24-well plates, in 500 μl of medium. After one day incubation, medium was removed and IL-1β measured following the manufacturer's instructions, and number of viable cells in each well quantified.

sympathetic neurons [8] = assay: Survival of sympathetic neurons exposed to camptothecin; format: cell-based, rat; conditions: V-linked peptides

CN1CC[C@H](c2c(O)cc(O)c3c(=O)cc(-c4ccccc4Cl)oc23)[C@H](O)C1 [flavopiridol]
survival of UV-treated sympathetic neurons (sympathetic neurons [1]): effectively promoted survival | concentration of maximal protection (sympathetic neurons [1]): 1 to 3 µM | survival of AraC-treated sympathetic neurons (sympathetic neurons [2]; AraC 100 μM): quite effectively promoted long term survival | maximal concentration required to protect from AraC (sympathetic neurons [2]; AraC 100 μM): 1 µM | toxicity of the CDK inhibitors to sympathetic neurons (sympathetic neurons [2]): toxicity | protection of sympathetic neurons depleted of SOD1 (sympathetic neurons [3]; ASOD1 50 nM with SNAP 100 μM): neither flavopiridol nor olomoucine protected | death of sympathetic neurons deprived of NGF (sympathetic neurons [4]): effectively blocked the death | death of neuronal PC12 cells depleted of SOD1 (neuronal PC12 cells): failed to inhibit death | minimum concentration required to fully inhibit DNA synthesis (proliferating PC12 cells): 1 µM

CC(=O)N[C@@H](Cc1ccc(O)cc1)C(=O)N[C@H](C(=O)N[C@@H](C)C(=O)N[C@@H](CC(=O)O)C(=O)CCl)C(C)C [acYVAD-cmk]
death evoked by SOD1 depletion (sympathetic neurons [3]; 250 μM, two days, ASOD1 with SNAP 100 μM): blocks death | death due to NGF deprivation (sympathetic neurons [4]; 250 μM, two days): not death due to NGF deprivation

CC(C)[C@H](NC(=O)[C@H](Cc1ccc(O)cc1)NC(=O)OCc1ccccc1)C(=O)N[C@@H](C)C(=O)N[C@@H](CC(=O)O)C(=O)CCl [ZYVAD-CMK, ZYVAD-chloromethylketone]
protection from trophic factor withdrawal (PC12 cells [5]; 250 μM): only partially effective; also recorded: partial protection | protection from NGF deprivation (sympathetic neurons [6]; 250 μM): no effect | protection from SOD1 down-regulation (PC12 cells [7]; 50 μM): full protection

CC[C@H](C)[C@H](N)C(=O)N[C@@H](CCC(N)=O)C(=O)N[C@@H](C)C(=O)N[C@@H](CSSC[C@H](N)C(=O)N[C@@H](CCCNC(=N)N)C(=O)N[C@@H](CCC(N)=O)C(=O)N[C@H](C(=O)N[C@@H](CCCCN)C(=O)N[C@H](C(=O)N[C@@H](Cc1c[nH]c2ccccc12)C(=O)N[C@@H](Cc1ccccc1)C(=O)N[C@@H](CCC(N)=O)C(=O)N[C@@H](CC(N)=O)C(=O)N[C@@H](CCCNC(=N)N)C(=O)N[C@@H](CCCNC(=N)N)C(=O)N[C@@H](CCSC)C(=O)N[C@@H](CCCCN)C(=O)N[C@@H](Cc1c[nH]c2ccccc12)C(=O)N[C@@H](CCCCN)C(=O)N[C@@H](CCCCN)C(=O)O)[C@@H](C)CC)[C@@H](C)CC)C(=O)N[C@@H](CCCNC(=N)N)C(=O)NCC(=O)O [V-ICEinh]
time of partial protection (PC12 cells [5]; naive and primed PC12 cells, serum/NGF withdrawal): at least 8 days | peptide concentration giving complete protection from death (PC12 cells [5]; naive and primed PC12 cells, serum/NGF withdrawal, 24 hours): 200 to 400 nM | time for which death was retarded (sympathetic neurons [6]; 50 nM, NGF-deprived): at least 6 days | time of complete protection from death (sympathetic neurons [6]; 50 nM, NGF-deprived): 3 days | effect on the capacity of ASOD1 to lower cellular SOD1 (PC12 cells [7]): no effect | dose required for maximal protection (PC12 cells [7]; V-ASOD1 50 nM, one day): 0.025 to 0.05 µM | protection from death induced by down-regulation of SOD1 (PC12 cells [7]; naive and NGF-treated PC12 cells, V-ASOD1 50 nM, one day): protects | increase in IL-1β secretion per cell after SOD1 down-regulation (IL-1β; V-ICEinh 25 nM for V-ASOD1 treatment): blocked | death of sympathetic neurons exposed to UV (sympathetic neurons [1]; 200 nM, pretreated 18 hr): blocked death | death of AraC-treated sympathetic neurons (sympathetic neurons [2]; 200 nM, AraC 100 μM): blocked death | death of sympathetic neurons depleted of SOD1 (sympathetic neurons [3]; V-linked peptides): blocked death | protection from NGF deprivation (sympathetic neurons [4]; 200 nM, pretreated 18 hr): protected | death of sympathetic neurons exposed to camptothecin (sympathetic neurons [8]): blocked death

COC(=O)C[C@H](NC(=O)[C@H](C)NC(=O)[C@@H](NC(=O)OCc1ccccc1)C(C)C)C(=O)CF [ZVAD-FMK, ZVAD-fluoromethylketone] (Cbz-Val-Ala-Asp(OMe)-CH2F)
concentration required to be fully protective (PC12 cells [5]; serum withdrawal, one day): 50 µM | protection from NGF deprivation (sympathetic neurons [6]; 100 μM): protected | dose required for maximal protection (PC12 cells [7]; V-ASOD1 50 nM, one day): 6 µM | survival of sympathetic cultures exposed to UV irradiation (sympathetic neurons [1]; 50 μM, pretreated 16 hr): ineffective | survival of sympathetic cultures exposed to AraC (sympathetic neurons [2]; 50 μM, AraC 100 μM): ineffective | protection of sympathetic neurons depleted of SOD1 (sympathetic neurons [3]; 50 μM, exposed to nitric oxide generators): protected | protection from death due to NGF-depletion (sympathetic neurons [4]; 50 μM): protects

Cn1cnc2c(NCc3ccccc3)nc(NCCO)nc21 [olomoucine, 2-(2-hydroxyethylamino)-6-benzylamino-9-methylpurine]
survival of UV-treated sympathetic neurons (sympathetic neurons [1]): effectively promoted survival | concentration of maximal protection (sympathetic neurons [1]): 200 µM | survival of AraC-treated sympathetic neurons (sympathetic neurons [2]; AraC 100 μM): quite effectively promoted long term survival | maximal concentration required to protect from AraC (sympathetic neurons [2]; AraC 100 μM): 200 µM | toxicity of the CDK inhibitors to sympathetic neurons (sympathetic neurons [2]): toxicity | protection of sympathetic neurons depleted of SOD1 (sympathetic neurons [3]; ASOD1 50 nM with SNAP 100 μM): neither flavopiridol nor olomoucine protected | death of sympathetic neurons deprived of NGF (sympathetic neurons [4]): effectively blocked the death | death of neuronal PC12 cells depleted of SOD1 (neuronal PC12 cells): failed to inhibit death | minimum concentration required to fully inhibit DNA synthesis (proliferating PC12 cells): 200 µM

Cn1cnc2nc(NCCO)nc(NCc3ccccc3)c21 [isoolomoucine]
survival of UV-treated sympathetic neurons (sympathetic neurons [1]): nearly ineffective | survival of AraC-treated sympathetic neurons (sympathetic neurons [2]; AraC 100 μM): ineffective

C[C@@]1(CO)[C@H](O)CC[C@@]2(C)[C@H]1CC[C@H]1C[C@@H]3C[C@@]12CC[C@]3(O)CO [aphidicolin]
survival of UV-treated sympathetic neurons (sympathetic neurons [1]): failed to block death | survival of AraC-treated sympathetic neurons (sympathetic neurons [2]; AraC 100 μM): failed to block death

B1: NGF: nerve growth factor (mouse NGF) (protein, UniProt P01139 122-241, looked up)
Beta-nerve growth factor: SSTHPVFHMGEFSVCDSVSVWVGDKTTATDIKGKEVTVLAEVNINNSVFRQYFFETKCRASNPVESGCRGIDSKHWNSYCTTTHTFVKALTTDEKQAAWRFIRIDTACVCVLSRKATRRG
increase in IL-1β secretion (IL-1β; cells treated with NGF): 4 fold

B2: rmIL-1Ra: IL-1 receptor antagonist (protein, UniProt P25085 27-178, looked up)
Interleukin-1 receptor …: RPSGKRPCKMQAFRIWDTNQKTFYLRNNQLIAGYLQGPNIKLEEKIDMVPIDLHSVFLGIHGGKLCLSCAKSGDDIKLQLEEVNITDLSKNKEEDKRFTFIRSEKGPTTSFESAACPGWFLCTTLEADRPVSLTNTPEEPLIVTKFYFQEDQ
protection from trophic factor withdrawal (PC12 cells [5]; 10,000 ng/ml, one day): improved survival under these conditions only modestly | suppression of cell death of V-ASOD1 treated PC12 cells (PC12 cells [7]; 100 ng/ml): completely suppressed cell death
